Laboratory results from patent publication US20240051937A1, “ISOINDOLINONE AMIDE COMPOUNDS USEFUL TO TREAT DISEASES ASSOCIATED WITH GSPT1” (Monte Rosa Therapeutics, Inc., priority 2021, published 2024).
pIC50: −log10 of the molar value. Read-outs that look alike come from different tables or passages of the source.

What was measured:
GSPT1 = GSPT1 (Homo sapiens, UniProt P15170+Q96SW2); assay: Immunofluorescence assay for GSPT1 degradation in CAL-Si cells; type: cell-based; set-up: CAL-Si cells were purchased from DSMZ (cat. Number ACC302); host or cells: CAL-Si (CAL-51) cells; settings: 6 hours treatment
Procedure: The representative compounds were tested in an immunofluorescence assay for their activity to bind to degrade GSPT1. CAL-Si cells were purchased from DSMZ (cat. Number ACC302), sub-cultured in 90% Dulbecco's MEM (4.5 g/L glucose, Gibco 11965)+10% […] inactivated FBS (BioConcept, 2-01F136I) and incubated at 37° C., 5% CO2. For the assay, imaging microtiterplate Cell Carrier 96 Ultra (Perkin Elmer 6055302) were pre-coated with Fibronectin (Sigma F085, 30 μl at 0.2 μg/ml) in PBS (100 μl, Gibco 14190) for 45 min at room temperature, rinsed with PBS and CAL-Si cells (30K cells/well) were plated and let to adhere overnight. Cells were treated with compounds typically using a serial dilution ranging from 30 μM to 0.1 nM for 6 hours. Compounds were stored at 10 mM DMSO stocks. Vehicle (DMSO), positive (CC-885, 10 μM) and rescue controls (positive control plus 0.2 μM bortezomib) were also included at this stage. Cells were subsequently rinsed with PBS and fixed in 10% Formalin solution (50 μl, Sigma HT5011)) for 20 mins at room temperature. Following three consecutive PBS washes (100 μl), cells were permeabilized in 0.1% Triton X-100 in PBS (Sigma 93443, 50 μl) for 15 mins at room temperature. Following three further PBS washes, […] blocking buffer (1% BSA, Sigma A4503, in PBS) was added for 45 min for signal-to-noise reduction.
Primary antibody (human GSPT1, Sigma HPA052488) was diluted in blocking buffer (dil.1/300, 35 μl/well) and incubated with the cells overnight at 4° C. After three PBS washes, Alexa-fluor 488 coupled secondary antibodies (Invitrogen, A32731, dil.1/1000), Alexa-fluor 647-Phalloidin (Invitrogen, A22287, dil.1/200) and DAPI (Thermo, #62248, dil.1/1000) were diluted in blocking buffer and incubated with the samples for 2 hours at room temperature. After three final PBS washes, samples were conserved in […] PBS in the dark, until measurement. Image acquisition was performed on the Operetta High-Content Imager (Perkin-Elmer). Fluorescence intensity of Alexa-Fluor 488 (GSPT1), Alexa-Fluor 647 (Actin) and DAPI (Nucleus) were measured. For the determination of GSPT1 DC50 values, a custom algorithm implemented in the PerkinElmer image analysis software Harmony-Acapella® was developed. After user-defined setting of adjustment parameters, the analysis was run identically without human intervention for all image fields. DAPI staining of the nuclei was used to determine the location of cells using standard nuclei detection modules. Segmentation artifacts were removed by threshold-based filters for area, roundness and intensity. The outline of the cells was determined analogously from the sum of the normalized, smoothed DAPI and Actin channel, starting from each nucleus.
The Alexa-Fluor 488 (GSPT1) signal intensity in each cell was finally measured, in order to obtain a Mean intensity per cell. GSPT1 degradation (DC50) was calculated after normalization to controls and data import in CDD vault Database, using non-linear regression.

[1] = target: T1, Full length wild-type cereblon CRBN (Homo sapiens, UniProt Q96SW2); assay: Fluorescence polarization (FP) assay indicating cereblon binding
T1 construct: Full length wild-type cereblon CRBN (80.0 nM, 10 μL) was incubated in assay buffer
Excerpt: Protocol for Fluorescent Polarization Assay
Compound activity was monitored in a fluorescence polarization (FP) homogeneous assay using 1-[5-({2-[2-(2-{[2-(2,6-dioxopiperidin-3-yl)-1,3-dioxo-2,3-dihydro-1H-isoindol-4-yl]oxy}acetamido)ethoxy]ethyl}carbamoyl)pentyl]-3,3-dimethyl-2-[(1E,3E)-5-[(2E)-1,3,3-trimethyl-5-sulfo-2,3-dihydro-1H-indol-2-ylidene]penta-1,3-dien-1-yl]-3H-indol-1-ium-5-sulfonate as a fluorescent probe. Unless otherwise stated, all reagents were purchased from Sigma Aldrich. Enzymatic reactions were conducted in Perkin-Elmer Black 384 well ProxiPlate Plus (catalogue no. 6008269) in 10 μL total volume. Full length wild-type cereblon CRBN (80.0 nM, 10 μL) was incubated in assay buffer containing 20 mM HEPES (pH 8.0), […], 0.5 mM TCEP and 0.05% Tween 20 in the presence or absence of compound (300 nL). Inhibitors were stored as 10 mM DMSO stocks in an inert environment (low humidity, dark, low oxygen, room temperature) using the Storage Pod System. Compounds and DMSO were dispensed using the Echo E5XX (Labcyte Inc. USA) to give concentrations from 300 to 0.937 or 3000 to 9.3 nM in a 12 data point curve. […] Following incubation at room temperature for 30 min, the assay was initiated by dispensing the probe to a final concentration of 5 nM (2.5 nL of a 20 μM stock) using the Echo E5XX. FP was measured after a period of 12 hours using a Pherastar plate reader (BMG Labtech, Germany) exciting at 590 nm and measuring the amount of parallel and perpendicular light at 675 nm. The FP signal was subsequently normalized to the no-compound control (i.e., DMSO). Analysis and IC50 values were derived using Dotmatics (Dotmatics UK) software.

[2] = read-out: Code: activity for GSPT1 degradation (DC50)
[3] = cereblon binding, CRBN 80.0 nM, probe 5 nM, FP read after 12 hours, read-out: rFP IC50
[4] = fluorescence polarization assay, read-out: IC50 value (cereblon binding)
[5] = GSPT1 degradation, read-out: DC50

T1 sequence (Q96SW2 whole entry): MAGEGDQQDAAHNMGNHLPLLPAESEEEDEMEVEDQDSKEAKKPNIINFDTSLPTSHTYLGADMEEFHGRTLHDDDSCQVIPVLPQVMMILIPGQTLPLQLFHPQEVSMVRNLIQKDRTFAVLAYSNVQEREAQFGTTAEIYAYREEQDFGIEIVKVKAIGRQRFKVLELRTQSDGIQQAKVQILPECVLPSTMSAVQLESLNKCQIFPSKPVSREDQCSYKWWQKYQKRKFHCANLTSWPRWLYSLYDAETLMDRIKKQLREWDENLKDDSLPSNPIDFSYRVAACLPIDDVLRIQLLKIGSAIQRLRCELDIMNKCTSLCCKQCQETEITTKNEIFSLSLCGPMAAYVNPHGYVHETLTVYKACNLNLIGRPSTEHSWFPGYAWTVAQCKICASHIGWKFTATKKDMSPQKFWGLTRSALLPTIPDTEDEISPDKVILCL
GSPT1, sequence (P15170 whole entry): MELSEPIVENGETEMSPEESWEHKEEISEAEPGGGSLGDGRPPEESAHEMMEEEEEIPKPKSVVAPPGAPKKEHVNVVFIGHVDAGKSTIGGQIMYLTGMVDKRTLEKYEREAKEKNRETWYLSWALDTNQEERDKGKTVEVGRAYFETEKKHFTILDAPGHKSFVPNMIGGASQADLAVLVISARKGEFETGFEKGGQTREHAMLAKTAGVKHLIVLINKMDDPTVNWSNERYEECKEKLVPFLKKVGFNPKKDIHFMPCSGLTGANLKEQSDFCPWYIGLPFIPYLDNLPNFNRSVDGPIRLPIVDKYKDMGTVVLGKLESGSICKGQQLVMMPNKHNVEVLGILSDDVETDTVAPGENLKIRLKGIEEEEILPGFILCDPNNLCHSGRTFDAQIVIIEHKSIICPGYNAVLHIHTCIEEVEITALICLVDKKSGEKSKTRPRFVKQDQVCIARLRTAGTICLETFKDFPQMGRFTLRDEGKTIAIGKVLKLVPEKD
GSPT1, sequence (Q96SW2 whole entry): as the sequence (Q96SW2 whole entry) above
GSPT1, sequence (Q16531 whole entry partner): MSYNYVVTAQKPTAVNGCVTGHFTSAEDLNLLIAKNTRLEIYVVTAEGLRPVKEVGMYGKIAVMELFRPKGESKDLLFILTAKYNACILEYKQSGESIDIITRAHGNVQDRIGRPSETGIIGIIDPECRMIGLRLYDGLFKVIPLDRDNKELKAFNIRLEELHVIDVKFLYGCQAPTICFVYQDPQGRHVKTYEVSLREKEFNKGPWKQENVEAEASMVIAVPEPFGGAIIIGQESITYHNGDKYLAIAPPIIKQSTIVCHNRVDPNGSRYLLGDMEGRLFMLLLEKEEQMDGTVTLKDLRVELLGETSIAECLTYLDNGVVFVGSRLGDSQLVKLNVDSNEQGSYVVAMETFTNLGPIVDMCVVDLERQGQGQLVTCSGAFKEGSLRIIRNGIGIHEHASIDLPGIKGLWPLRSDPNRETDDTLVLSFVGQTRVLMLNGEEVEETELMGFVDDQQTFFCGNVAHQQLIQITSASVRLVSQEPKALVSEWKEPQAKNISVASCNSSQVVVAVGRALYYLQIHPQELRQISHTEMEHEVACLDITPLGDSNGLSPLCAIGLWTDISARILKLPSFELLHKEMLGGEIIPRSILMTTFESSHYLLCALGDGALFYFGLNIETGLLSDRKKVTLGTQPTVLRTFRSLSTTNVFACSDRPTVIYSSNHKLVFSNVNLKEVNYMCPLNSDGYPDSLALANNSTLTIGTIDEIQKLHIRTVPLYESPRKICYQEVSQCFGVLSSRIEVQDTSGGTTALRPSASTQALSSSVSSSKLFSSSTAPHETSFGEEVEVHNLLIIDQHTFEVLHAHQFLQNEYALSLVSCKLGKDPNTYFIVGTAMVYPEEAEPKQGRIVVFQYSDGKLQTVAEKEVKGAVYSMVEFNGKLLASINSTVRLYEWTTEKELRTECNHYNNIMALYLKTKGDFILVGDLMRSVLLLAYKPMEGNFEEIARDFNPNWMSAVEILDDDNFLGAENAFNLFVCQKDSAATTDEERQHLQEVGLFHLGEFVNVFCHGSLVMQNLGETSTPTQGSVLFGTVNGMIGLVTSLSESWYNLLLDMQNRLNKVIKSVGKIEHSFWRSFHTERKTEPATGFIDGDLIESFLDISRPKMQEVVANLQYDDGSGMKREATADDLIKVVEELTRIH

Row | SMILES | DC50 (GSPT1; [2]) | pIC50 [1, 3] | pIC50 [1, 4] | DC50 (GSPT1; [5])
1 | Cc1c(Cl)cc(NC(=O)CCc2ccc3c(c2)C(=O)N(C2CCC(=O)NC2=O)C3)cc1OCCN1CCOCC1 (stereo not drawn) [Compound 39] | 30 to 300 nM | ≥ 6.30 | > 5.96 | –
2 | Cc1c(Cl)cc(NC(=O)CCc2ccc3c(c2)C(=O)N(C2CCC(=O)NC2=O)C3)cc1OC1CCNC1 (stereo not drawn) [Compound 40, N-(3-chloro-4-methyl-5-(pyrrolidin-3-yloxy)phenyl)-3-(2-(2,6-dioxopiperidin-3-yl)-3-oxoisoindolin-5-yl)propanamide] | > 300 nM | ≥ 6.30 | > 5.96 | –
3 | CC(C)(C)c1ccc(NC(=O)CCc2ccc3c(c2)C(=O)N(C2CCC(=O)NC2=O)C3)cn1 (stereo not drawn) [Compound 41] | ≤ 30 nM | 5.77 to 5.96 | – | 26 nM
4 | Cc1c(F)cc(NC(=O)CCc2ccc3c(c2)C(=O)N(C2CCC(=O)NC2=O)C3)cc1CN1CCOCC1 (stereo not drawn) [Compound 42] | ≤ 30 nM | 5.77 to 5.96 | – | 30 nM
5 | CCc1cc(NC(=O)CCc2ccc3c(c2)C(=O)N(C2CCC(=O)NC2=O)C3)cc(Cl)c1C (stereo not drawn) [Compound 43] | ≤ 30 nM | 5.77 to 5.96 | – | 26 nM
6 | O=C1CCC(N2Cc3ccc(CCC(=O)Nc4ccc(-c5ccccn5)cc4)cc3C2=O)C(=O)N1 (stereo not drawn) [Compound 44] | ≤ 30 nM | 5.96 to 6.30 | > 5.96 | 27 nM
7 | CC(C)(C)c1ccc(NC(=O)CCc2ccc3c(c2)C(=O)N(C2CCC(=O)NC2=O)C3)cc1 (stereo not drawn) [Compound 45] | ≤ 30 nM | 5.96 to 6.30 | > 5.96 | 22 nM
8 | CCc1cc(NC(=O)CCc2ccc3c(c2)C(=O)N(C2CCC(=O)NC2=O)C3)cnc1C (stereo not drawn) [Compound 46] | 30 to 300 nM | 5.96 to 6.30 | > 5.96 | –
9 | CCc1ncc(NC(=O)CCc2ccc3c(c2)C(=O)N(C2CCC(=O)NC2=O)C3)cc1C (stereo not drawn) [Compound 47] | 30 to 300 nM | 5.96 to 6.30 | > 5.96 | –
10 | O=C1CCC(N2Cc3ccc(CCC(=O)Nc4cnc5c(c4)COCC5)cc3C2=O)C(=O)N1 (stereo not drawn) [Compound 48] | > 300 nM | 5.77 to 5.96 | – | –
11 | O=C1CCC(N2Cc3ccc(CCC(=O)Nc4cnc5c(c4)CCC5)cc3C2=O)C(=O)N1 (stereo not drawn) [Compound 49] | > 300 nM | 5.77 to 5.96 | – | –
12 | Cc1c(Cl)cc(NC(=O)CCc2ccc3c(c2)C(=O)N(C2CCC(=O)NC2=O)C3)cc1OC1CCN(C)C1 (stereo not drawn) [Compound 50] | 30 to 300 nM | ≥ 6.30 | > 5.96 | –
13 | Cc1c(Cl)cc(NC(=O)CCc2ccc3c(c2)C(=O)N(C2CCC(=O)NC2=O)C3)cc1OCC1CCNC1 (stereo not drawn) [Compound 51] | > 300 nM | ≥ 6.30 | > 5.96 | –
14 | Cc1cc(NC(=O)CCc2ccc3c(c2)C(=O)N(C2CCC(=O)NC2=O)C3)cc(C)n1 (stereo not drawn) [Compound 52] | > 300 nM | < 5.77 | – | –
15 | Cc1c(CN2CCOCC2)cc(NC(=O)CCc2ccc3c(c2)C(=O)N(C2CCC(=O)NC2=O)C3)cc1OC(F)(F)F (stereo not drawn) [Compound 53] | ≤ 30 nM | 5.96 to 6.30 | > 5.96 | 22 nM
16 | CCc1cc(NC(=O)CCc2ccc3c(c2)C(=O)N(C2CCC(=O)NC2=O)C3)ccn1 (stereo not drawn) [Compound 54] | > 300 nM | 5.96 to 6.30 | > 5.96 | –
17 | CC1(c2ccc(NC(=O)CCc3ccc4c(c3)C(=O)N(C3CCC(=O)NC3=O)C4)cc2)COC1 (stereo not drawn) [Compound 55] | > 300 nM | 5.77 to 5.96 | – | –
18 | O=C1CCC(N2Cc3ccc(CCC(=O)Nc4cc(F)cc(OC(F)(F)F)c4)cc3C2=O)C(=O)N1 (stereo not drawn) [Compound 56] | 30 to 300 nM | < 5.77 | – | –
19 | CCc1cc(NC(=O)CCc2ccc3c(c2)C(=O)N(C2CCC(=O)NC2=O)C3)cc(C)n1 (stereo not drawn) [Compound 57] | > 300 nM | ≥ 6.30 | > 5.96 | –
20 | CC1(c2ccc(NC(=O)CCc3ccc4c(c3)C(=O)N(C3CCC(=O)NC3=O)C4)cc2)CC1 (stereo not drawn) [Compound 58] | 30 to 300 nM | 5.77 to 5.96 | – | –
21 | O=C1CCC(N2Cc3ccc(CCC(=O)Nc4cc(OC(F)(F)F)ccn4)cc3C2=O)C(=O)N1 (stereo not drawn) [Compound 59] | > 300 nM | 5.96 to 6.30 | > 5.96 | –
